Consider six molecules from US5451522A, “Genes encoding and method of expressing an enzyme: phthalyl amidase” (priority 1994, dated 1995).

Test [1] addresses T1, phthalyl amidase (Xanthobacter agilis, UniProt P0C2Y0).
T1 construct: 42-aa signal peptide removed
Nature of the test: Chiral and additional substrate selectivity of phthalyl amidase. The test is classed as biochemical. To be noted: Table 13; for Relative Activity: III = 100, 0.009 mg (0.6 units) enzyme, 2.5 μmol substrate, buffer A, 30° C. As for the experimental part:
Several additional substrates were tested in a total volume of 1 ml. […] Reactions were stopped by the addition of methanol, and phthalic acid formation was monitored by HPLC.

Test [2] concerns Xanthobacter agilis. As to the kind of experiment: Induction of phthalyl amidase in Xanthobacter agilis cultures. Type of test: cell-based. To be noted: for Total units/mg protein: cell-free lysate, chromogenic substrate II; for Cell weight: 48 hours growth in Bac MI medium; for effect on wet weight cell mass (in words): Table 1 summary. As for the experimental part: Three compounds at different concentrations were added to aerated cultures of the organism growing at 30° C. in Bac MI medium. The compounds tested were phthalate (PAA), phthalyl glycine (PAG), and PMBL. Cells of Xanthobacter agilis were grown with aeration for 24 hours. This vegetative culture was used to inoculate Bac MI medium (50 ml) containing different concentrations of the compounds to be tested. After 48 hours growth under standard conditions, cells were harvested by centrifugation and wet weight of the cells was determined. Crude cell extracts were prepared by lysozyme treatment of the cells as in Example 1. Suspensions were briefly sonicated to break up the viscous suspension. A cell-free supernatant was obtained by centrifugation of the suspension at 14,000 rpm for 15 minutes.
Enzyme activity in cell-free lysates was determined by monitoring conversion of the chromogenic substrate 4-(2'-carboxy-N-benzoyl)amino-2-carboxy-nitrobenzene (II) to 2-nitro-5-amino benzoic acid and phthalic acid, a reaction catalyzed by phthalyl amidase as shown below: [drawing 4]
The assay reaction mixture (1 ml) consisted of 0.3 μmol of the chromogenic substrate (II) and 0.001-0.5 μg of enzyme preparation in 50 mM potassium phosphate buffer, pH 8.0 (buffer A). The enzymatic reaction was conducted at 30° C. for 10 minutes and the appearance of product was monitored at 380 nm (or 430 nm). The amount of substrate hydrolyzed was calculated from a standard curve of the amine product.

T1 sequence (P0C2Y0 2-453): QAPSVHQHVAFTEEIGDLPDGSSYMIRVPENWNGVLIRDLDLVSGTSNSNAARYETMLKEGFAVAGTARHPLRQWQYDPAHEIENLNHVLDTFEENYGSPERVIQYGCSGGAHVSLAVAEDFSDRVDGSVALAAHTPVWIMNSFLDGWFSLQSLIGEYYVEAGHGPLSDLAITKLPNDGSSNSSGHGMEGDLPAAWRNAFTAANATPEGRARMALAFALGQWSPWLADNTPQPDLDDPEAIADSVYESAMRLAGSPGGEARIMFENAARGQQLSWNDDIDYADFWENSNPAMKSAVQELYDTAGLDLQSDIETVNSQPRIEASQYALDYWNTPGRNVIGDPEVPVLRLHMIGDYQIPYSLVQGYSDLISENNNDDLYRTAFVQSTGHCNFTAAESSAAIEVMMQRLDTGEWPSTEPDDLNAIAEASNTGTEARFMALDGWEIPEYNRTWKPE

For the molecule `O=C(O)c1ccccc1C(=O)Nc1ccccc1` [Compound XXXI], in test [1], the “substrate selectivity (in words)” value is on record as “twice” and the “Relative Activity” value stood at 200.

With `O=C(O)c1ccccc1C(=O)N[C@H](C(=O)O)c1ccccc1` [Compound XXX], in test [1], the “substrate selectivity (in words)” value was “poor substrates” and the “Relative Activity” value worked out at 1.3. Moreover, the “substrate selectivity (in words)” value in test [1] (listed as L isomer) was “extremely poor substrate”.

As to `O=C(O)c1ccccc1C(=O)O` [PAA, phthalate], the Units/g cells in test [2] (inducer addition 1 mg/ml) is on record as 3.9 Units/g cells; in test [2] (inducer addition 2 mg/ml) it was 9.3 Units/g cells; in test [2] (inducer addition 5 mg/ml), 5.5 Units/g cells; in test [2] (inducer addition 10 mg/ml), 19.8 Units/g cells. Further, the Total units/mg protein in test [2] (inducer addition 1 mg/ml) was found to be 1.4 µmol/min/mg; in test [2] (inducer addition 2 mg/ml) it was 4.3 µmol/min/mg; in test [2] (inducer addition 5 mg/ml), 3.7 µmol/min/mg; in test [2] (inducer addition 10 mg/ml), 12.0 µmol/min/mg. Besides, the results for the Cell weight in test [2] (inducer addition 5 mg/ml) and in test [2] (inducer addition 10 mg/ml) were 0.7 g/50 ml and 0.6 g/50 ml, respectively.

With `O=C(O)CNC(=O)c1ccccc1C(=O)O` [PAG, phthalyl glycine], the “effect on wet weight cell mass (in words)” value in test [2] is listed as “increased”. Further, in test [2] (inducer addition 1 mg/ml), the Units/g cells is reported as 1.04 Units/g cells and the Total units/mg protein stood at 0.35 µmol/min/mg. In addition, in test [2] (inducer addition 5 mg/ml), the Units/g cells is 9.4 Units/g cells, the Cell weight is recorded as 0.5 g/50 ml and the Total units/mg protein came out at 4.4 µmol/min/mg.

`O=C(O)CN1C(=O)C(NC(=O)c2ccccc2C(=O)O)C1CCc1ccco1` (stereo not drawn) [PMBL]: in test [2], the “effect on wet weight cell mass (in words)” value was “no effect”.

For `O=C(Nc1ccccc1)c1ccccc1S(=O)(=O)O` [XXXII], in test [1], the “substrate selectivity (in words)” value was “poor substrates” and the “Relative Activity” value stood at 0.0.
